{
  "source": "patent US8697694B2",
  "about": "“Substituted pyridine and pyrimidine derivatives and their use in treating viral infections” (priority 2008, dated 2014)",
  "data": [
    {"tested_on": "HCV replicon cells", "assay": "Cell-based HCV replicon assay (replicon RNA level by real time PCR, Taqman)", "conditions": "Hepatitis C virus, 72 h, HCV replicon cells, harvested day 3, replicon RNA by real time PCR; given as number; read-out: EC90 (μM) range", "how_it_was_run": "(§1)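 Readout: ΔCT between NS5B replicon RNA and GAPDH by real-time RT-PCR in lysates harvested on day 3, fitted sigmoidally; EC50 at ΔCT=1, EC90 at ΔCT=3.2. Compounds tested at ten 2-fold dilutions from 25 μM to 1 μM start, 10% FBS, 0.5% DMSO.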", "units": {"EC90": "µM"}, "values": [
      {"smiles": "Cc1nc(NCC2CC2)nc(N[C@@H]2C[C@H](CO)[C@@H](O)[C@H]2O)c1-c1cc2cc(OCC(C)(C)C)nc(C)c2o1", "note": "[Example 45]", "EC90": "> 25"},
      {"smiles": "COc1cc(CNc2nc(C)c(-c3cc4cc(OCC5CC5)ncc4o3)c(N[C@@H]3C[C@H](CO)[C@@H](O)[C@H]3O)n2)cc(OC)c1", "note": "[Example 56]", "EC90": 0.06},
      {"smiles": "Cc1nc(NCC2CC2)nc(N[C@@H]2C[C@H](CO)[C@@H](O)[C@H]2O)c1-c1cc2cc(OCC(F)(F)F)nc(C)c2o1", "note": "[Example 47]", "EC90": 0.4},
      {"smiles": "CNC(=O)OC[C@H]1C[C@@H](Nc2nc(NCC(F)(F)F)nc(C)c2-c2nc3ccccc3s2)[C@H](O)[C@@H]1O", "note": "[Example 66]", "EC90": 0.85}
    ]},
    {"tested_on": "HCV replicon cells", "assay": "Cell-based HCV replicon assay (replicon RNA level by real time PCR, Taqman)", "conditions": "Hepatitis C virus, 72 h, HCV replicon cells, harvested day 3, replicon RNA by real time PCR; reported as range class; read-out: EC90 (μM) range", "how_it_was_run": "as §1", "units": {"EC90": "µM"}, "values": [
      {"smiles": "Nc1nc(Cl)c(-c2ccco2)c(N[C@@H]2C[C@H](CO)[C@@H](O)[C@H]2O)n1", "note": "[Example 152]", "EC90": "> 5"},
      {"smiles": "Nc1nc(Cl)c(-c2cc3cc(-c4ccccc4)ccc3o2)c(N[C@@H]2C[C@H](CO)[C@@H](O)[C@H]2O)n1", "note": "[Example 174]", "EC90": "> 5"},
      {"smiles": "Nc1nc(Cl)c(-c2cc3c(F)cncc3o2)c(N[C@@H]2C[C@H](CO)[C@@H](O)[C@H]2O)n1", "note": "[Example 303]", "EC90": "0.5 to 5"},
      {"smiles": "Nc1nc(Cl)c(-c2cc3cc(C(=O)N4CCOCC4)ccc3o2)c(N[C@@H]2C[C@H](CO)[C@@H](O)[C@H]2O)n1", "note": "[Example 175]", "EC90": "> 5"},
      {"smiles": "Cc1ccc2nc(-c3c(Cl)nc(N)nc3N[C@@H]3C[C@H](CO)[C@H]4OC(C)(C)O[C@H]43)oc2c1", "note": "[Example 190]", "EC90": "> 5"},
      {"smiles": "CNc1nc(Cl)c(-c2nc3ccccc3s2)c(N(C)[C@@H]2C[C@H](CO)[C@@H](O)[C@H]2O)n1", "note": "[Example 404]", "EC90": "> 5"},
      {"smiles": "COCCNc1nc(Cl)c(-c2cc3cc(OC)nc(C)c3o2)c(N[C@@H]2C[C@H](CO)[C@@H](O)[C@H]2O)n1", "note": "[Example 18]", "EC90": "< 0.5"},
      {"smiles": "OCCNc1nc(Cl)c(-c2nc3ccccc3s2)c(N[C@@H]2C[C@H](CO)[C@@H](O)[C@H]2O)n1", "note": "[Example 212]", "EC90": "< 0.5"}
    ]},
    {"tested_on": "HCV replicon cells", "assay": "Cell-based HCV replicon assay (replicon RNA level by real time PCR, Taqman)", "conditions": "Hepatitis C virus, 72 h, HCV replicon cells, harvested on day 3, replicon RNA by real time PCR; calculated EC90 reported as range class; read-out: EC90 (μM) range", "how_it_was_run": "as §1", "units": {"EC90": "µM"}, "values": [
      {"smiles": "CN(C)c1nc(Cl)c(-c2cc3ccncc3o2)c(N[C@@H]2C[C@H](CO)[C@@H](O)[C@H]2O)n1", "note": "[Example 522]", "EC90": "0.5 to 5"},
      {"smiles": "CCCCCNc1nc(C)c(-c2cc3cc(C)nc(C)c3o2)c(N[C@@H]2C[C@H](CO)[C@@H](O)[C@H]2O)n1", "note": "[Example 452]", "EC90": "< 0.5"},
      {"smiles": "CCCCCNc1nc(Cl)c(-c2nc3ccccc3s2)c(N[C@@H]2C[C@H](CO)[C@@H](O)[C@H]2O)n1", "note": "[Example 433]", "EC90": "< 0.5"},
      {"smiles": "CCc1cc2cc(-c3c(C)nc(NCC(C)C)nc3N[C@@H]3C[C@H](CO)[C@@H](O)[C@H]3O)oc2cn1", "note": "[Example 519]", "EC90": "< 0.5"},
      {"smiles": "COc1cc(CNc2nc(C)c(-c3nc4ccccc4s3)c(N[C@@H]3C[C@H](CO)[C@H]4OC(C)(C)O[C@H]43)n2)cc(OC)c1", "note": "[Example 500]", "EC90": "< 0.5"},
      {"smiles": "CCOCCNc1nc(C)c(-c2cc3cc(C(F)(F)F)ncc3o2)c(N[C@@H]2C[C@H](CO)[C@@H](O)[C@H]2O)n1", "note": "[Example 138]", "EC90": "< 0.5"},
      {"smiles": "COCCNc1nc(C)c(-c2cc3cc(C(F)(F)F)ncc3o2)c(N[C@@H]2C[C@H](CO)[C@H]3OC(C)(C)O[C@H]32)n1", "note": "[Example 135]", "EC90": "> 5"},
      {"smiles": "Cc1nc(NCCN2CCOCC2)nc(N[C@@H]2C[C@H](CO)[C@H]3OC(C)(C)O[C@H]32)c1-c1nc2ccccc2s1", "note": "[Example 248]", "EC90": "< 0.5"},
      {"smiles": "Cc1nc(NCC2CC2)nc(N[C@@H]2C[C@H](CO)[C@@H](O)[C@H]2O)c1-c1cc2cc(C(F)(F)F)ncc2o1", "note": "[Example 143]", "EC90": "0.5 to 5"},
      {"smiles": "CSc1nc(C)c(-c2nc3ccccc3s2)c(N[C@@H]2C[C@H](CO)[C@@H](O)[C@H]2O)n1", "note": "[Example 326]", "EC90": "0.5 to 5"},
      {"smiles": "COc1cc(CNc2nc(C)c(-c3nc4ccccc4s3)c(N[C@@H]3C[C@H](CO)[C@H]4OC(C)(C)O[C@H]43)n2)cc(OC)c1OC", "note": "[Example 710]", "EC90": "< 0.5"},
      {"smiles": "Cc1cc2cc(-c3c(C)nc(NCC(F)(F)F)nc3N[C@@H]3C[C@H](CO)[C@@H](O)[C@H]3O)oc2c(C)n1", "note": "[Example 457]", "EC90": "< 0.5"}
    ]},
    {"tested_on": "HCV replicon cells", "assay": "Cell-based HCV replicon assay (replicon RNA level by real time PCR, Taqman)", "conditions": "Hepatitis C virus, 72 h, HCV replicon cells, replicon RNA level by real time PCR (Taqman), harvested on day 3; calculated EC90 reported as range class; read-out: EC90 (μM) range", "how_it_was_run": "as §1", "units": {"EC90": "µM"}, "values": [
      {"smiles": "Cc1nc(N(C)Cc2ccccc2)nc(N[C@@H]2C[C@H](CO)[C@@H](O)[C@H]2O)c1-c1nc2ccccc2s1", "note": "[Example 1116]", "EC90": "> 5"},
      {"smiles": "Cc1nc(NCc2cccc(N(C)C)c2)nc(N[C@@H]2C[C@H](CO)[C@H]3OC(C)(C)O[C@H]32)c1-c1nc2ccccc2s1", "note": "[Example 1105]", "EC90": "0.5 to 5"},
      {"smiles": "CC(C)(C)CNc1nc(CF)c(-c2nc3ccccc3s2)c(N[C@@H]2C[C@H](CO)[C@@H](O)[C@H]2O)n1", "note": "[Example 1120]", "EC90": "> 5"},
      {"smiles": "Cc1cc2cc(-c3c(C)nc(NCC(F)(F)F)nc3N[C@@H]3C[C@H](CO)[C@@H](O)[C@H]3O)oc2c(OC(C)C)n1", "note": "[Example 1247]", "EC90": "< 0.5"},
      {"smiles": "Cc1nc(N[C@@H](C)c2ccccc2)nc(N[C@@H]2C[C@H](CO)[C@@H](O)[C@H]2O)c1-c1nc2cnccc2s1", "note": "[Example 1305]", "EC90": "0.5 to 5"},
      {"smiles": "Cc1nc(NCc2cccc(S(C)(=O)=O)c2)nc(N[C@@H]2C[C@H](CO)[C@@H](O)[C@H]2O)c1-c1nc2ccccc2s1", "note": "[Example 1225]", "EC90": "0.5 to 5"},
      {"smiles": "COc1cnccc1Nc1nc(C)c(-c2nc3ccccc3s2)c(N[C@@H]2C[C@H](CO)[C@@H](O)[C@H]2O)n1", "note": "[Example 1131]", "EC90": "> 5"},
      {"smiles": "Cc1nc(NCC2CC2)nc(N[C@@H]2C[C@H](CO)[C@@H](O)[C@H]2O)c1-c1nc2ccccc2o1", "note": "[Example 528]", "EC90": "0.5 to 5"},
      {"smiles": "Cc1nc(Nc2cccc(OCc3ccccc3)c2)nc(N[C@@H]2C[C@H](CO)[C@@H](O)[C@H]2O)c1-c1nc2ccccc2s1", "note": "[Example 1231]", "EC90": "0.5 to 5"},
      {"smiles": "Cc1nc(NCC2CC2)nc(N[C@@H]2C[C@H](CO)[C@@H](O)[C@H]2O)c1-c1nc2ccccc2n1C", "note": "[Example 530]", "EC90": "> 5"},
      {"smiles": "Cc1nc(NCc2nccs2)nc(N[C@@H]2C[C@H](CO)[C@@H](O)[C@H]2O)c1-c1nc2cnccc2s1", "note": "[Example 541]", "EC90": "< 0.5"},
      {"smiles": "COCCNc1nc(C#N)c(-c2nc3ccccc3s2)c(N[C@@H]2C[C@H](CO)[C@@H](O)[C@H]2O)n1", "note": "[Example 1301]", "EC90": "> 5"},
      {"smiles": "Cc1nc(NCC2CC2)nc(N[C@@H]2C[C@H](CO)C[C@H]2O)c1-c1nc2ccccc2s1", "note": "[Example 1251]", "EC90": "0.5 to 5"},
      {"smiles": "Cc1nc(NCC(C)(C)C)nc(N[C@@H]2CC[C@@H](O)[C@H]2O)c1-c1nc2cnccc2s1", "note": "[Example 1213]", "EC90": "> 5"}
    ]},
    {"tested_on": "HCV replicon cells", "assay": "Cell-based HCV replicon assay (replicon RNA level by real time PCR, Taqman)", "conditions": "Hepatitis C virus, 72 h, HCV replicon cells, replicon RNA level by real time PCR, harvested day 3; read-out: EC90 (μM) range", "how_it_was_run": "as §1", "units": {"EC90": "µM"}, "values": [
      {"smiles": "Cc1nc(N[C@H](C)c2ccc(OC(F)(F)F)cc2)nc(N[C@@H]2C[C@H](C(C)O)[C@@H](O)[C@H]2O)c1-c1nc2cnccc2s1", "note": "(stereo partly shown) [Example 1649]", "EC90": "< 0.5"},
      {"smiles": "Cc1nc(NCC(F)(F)F)nc(N[C@@H]2C[C@H](CNS(=O)(=O)C(F)(F)F)[C@@H](O)[C@H]2O)c1-c1nc2ccccc2s1", "note": "[Example 1523]", "EC90": "0.5 to 5"},
      {"smiles": "COCCNc1nc(C)c(-c2cc3ccccc3s2)c(N[C@@H]2C[C@H](CO)[C@@H](O)[C@H]2O)n1", "note": "[Example 1601]", "EC90": "> 5"},
      {"smiles": "Cc1nc(NCc2c(F)cccc2F)nc(N[C@@H]2C[C@H](CO)[C@@H](O)[C@H]2O)c1-c1nc2cnccc2s1", "note": "[Example 1804]", "EC90": "< 0.5"},
      {"smiles": "CCNC(=O)NC[C@H]1C[C@@H](Nc2nc(NCC(F)(F)F)nc(C)c2-c2nc3ccccc3s2)[C@H](O)[C@@H]1O", "note": "[Example 1377]", "EC90": "0.5 to 5"},
      {"smiles": "Cc1nc(NCC(F)(F)F)nc(N[C@@H]2C[C@H](C(C)(C)O)[C@@H](O)[C@H]2O)c1-c1nc2ccccc2s1", "note": "[Example 1640]", "EC90": "0.5 to 5"},
      {"smiles": "Cc1nc(N)nc(N[C@@H]2C[C@H](CO)[C@@H](O)[C@H]2O)c1-c1nc2c(C)nccc2s1", "note": "[Example 1534]", "EC90": "> 5"},
      {"smiles": "Cc1nc(NCC(F)(F)F)nc(N[C@@H]2C[C@H](CNS(C)(=O)=O)[C@@H](O)[C@H]2O)c1-c1nc2ccccc2s1", "note": "[Example 1507]", "EC90": "< 0.5"}
    ]}
  ]
}
